Consider four compounds from patent US4393052A, “Antitumor anthracycline glycosides, their preparation, intermediates therefor, and compositions and use thereof” (priority 1980, dated 1983).

≈ marks a conversion by molar mass, not a printed value. Where “and” joins values, the source holds several entries; their conditions need not be identical. Equal values may be shown once. Read-outs that look alike come from different tables or passages of the source.

For one series, the system named is P388 ascitic leukemia. Kind of series: Activity against P388 ascitic leukemia. The class given is in vivo, mice. The following applies: for T/C (median survival time of treated mice/median survival time of controls) / Toxicity deaths: day 1 after tumor inoculation. The procedure:
As regards the in vivo tests, preliminary experiments were carried out on P388 ascitic leukemia.
Activity against P388 ascitic leukemia. Treatment i.p. on day
1 after tumor inoculation.
^a Median survival time of treated mice/median survival time of […]

The next series relates to HeLa cells. Kind of series: Activity on HeLa cells cloning efficiency in vitro. The following applies: for ID50 / IC50: several values = separate experiments; for ID50: 1440 min; for activity on HeLa cells cloning efficiency in vitro (in words): compared with daunorubicin; for activity at 0.1 µg/mL: dose 100 ng/ml. The class given is cell-based. The source says: Activity on HeLa cells cloning efficiency in vitro. Treatment

The mark [1] stands for this setting: 2.9 mg/kg i.p., data of 3 experiments.
The mark [2] stands for this setting: HeLa cloning efficiency, treatment for 24 hours.
[3] abbreviates: Homo sapiens, HeLa, 24 h, HeLa cloning efficiency, treatment for 24 hours, read-out: ID50 (the source's name).
The mark [4] stands for this setting: Homo sapiens, HeLa, 24 h, 24 hours, read-out: % of controls.

In the case of `COc1cccc2c1C(=O)c1c(O)c3c(c(O)c1C2=O)C[C@@](O)(C(C)=O)C[C@@H]3O[C@H]1C[C@H](N)[C@H](O)[C@H](C)O1` [Daunorubicin, reference compound], the “T/C (median survival time of treated mice/median survival time of controls)” value in the series with P388 ascitic leukemia (setting [1]) was 170% and 172% and 180%; in the series with P388 ascitic leukemia (4.4 mg/kg i.p.), 170% and 168% and 185%; with P388 ascitic leukemia (6.6 mg/kg i.p.) it was 155% and 168% and 190%. Moreover, the Toxicity deaths in the series with P388 ascitic leukemia (setting [1]) was 0/10 and 0/6; in the series with P388 ascitic leukemia (4.4 mg/kg i.p.), 1/10 and 0/6 and 0/10; with P388 ascitic leukemia (6.6 mg/kg i.p.), 6/10 and 5/5 and 4/10. The same compound yielded an ID50 in the series with HeLa cells (setting [2]) of 0.0083 µg/mL (≈ 0.0157 µM). For the same compound, the activity at 0.00625 µg/mL in the series with HeLa cells (Homo sapiens, HeLa, 24 h, read-out: % of controls, dose 6.25 ng/ml, 24 hours, data of 3 experiments) stood at 66%. Further, in the series with HeLa cells (Homo sapiens, HeLa, 24 h, read-out: ID50, HeLa cloning efficiency, treatment for 24 hours), the IC50 is 0.009 µg/mL (≈ 0.0171 µM). Further, the “% of controls” value with HeLa cells (dose 3.12 ng/ml, 24 hours, data of 3 experiments) is 105% and 100% and 70%; in the series with HeLa cells (dose 6.25 ng/ml, 24 hours, data of 3 experiments), 69% and 57%.
As for `C=C1[C@@H](NC(=O)C(F)(F)F)C[C@H](O[C@H]2C[C@](O)(C(C)=O)Cc3c(O)c4c(c(O)c32)C(=O)c2c(OC)cccc2C4=O)O[C@H]1C` [IV-A, 4'-deoxy-4'-C-methylene-N-trifluoroacetyl-daunorubicin], the “T/C (median survival time of treated mice/median survival time of controls)” value with P388 ascitic leukemia (100 mg/kg i.p.) is reported as 110%; with P388 ascitic leukemia (200 mg/kg i.p.) it was 110%; in the series on P388 ascitic leukemia (400 mg/kg i.p.), 130%. Besides, the Toxicity deaths in the series with P388 ascitic leukemia (100 mg/kg i.p.) is recorded as 0/5; in the series with P388 ascitic leukemia (200 mg/kg i.p.), 0/5; in the series with P388 ascitic leukemia (400 mg/kg i.p.), 0/3. For the same compound, in the series with HeLa cells (setting [2]), the ID50 is 1.3 µg/mL (≈ 2.1 µM). Also, the IC50 in the series with HeLa cells (setting [3]) is 1.6 µg/mL (≈ 2.58 µM). Also, the activity at 0.8 µg/mL in the series with HeLa cells (Homo sapiens, HeLa, 24 h, dose 800 ng/ml, 24 hours, read-out: % of controls) came out at 115%. Further, in the series with HeLa cells (Homo sapiens, HeLa, 24 h, dose 3200 ng/ml, 24 hours, read-out: % of controls), the activity at 3.2 µg/mL was determined as 7%. The “activity on HeLa cells cloning efficiency in vitro (in words)” value (“activity … in vitro (in words)” for short) in the series on HeLa cells is “markedly less active than daunorubicin”. Also, the “% of controls” value in the series on HeLa cells (dose 800 ng/ml, 24 hours) is listed as 116%.
`COc1cccc2c1C(=O)c1c(O)c3c(c(O)c1C2=O)CC(O)(C(C)=O)CC3OC1CC(N)C(C)C(C)O1` (stereo not drawn) [V-B, 4'-deoxy-4'-epi-C-methyl-daunorubicin]: the entries for the “T/C (median survival time of treated mice/median survival time of controls)” value with P388 ascitic leukemia (4.4 mg/kg i.p.), in the series with P388 ascitic leukemia (6.6 mg/kg i.p.) and with P388 ascitic leukemia (10.0 mg/kg i.p.) were 130%, 140% and 140%, respectively. For the same compound, the Toxicity deaths was 0/10 with P388 ascitic leukemia (4.4 mg/kg i.p.), 0/10 in the series with P388 ascitic leukemia (6.6 mg/kg i.p.) and 0/9 in the series with P388 ascitic leukemia (10.0 mg/kg i.p.). Also, in the series on HeLa cells (setting [3]), the IC50 was found to be 0.0077 µg/mL (≈ 0.0147 µM). In addition, the activity at 0.0062 µg/mL in the series on HeLa cells (Homo sapiens, HeLa, 24 h, dose 6.2 ng/ml, 24 hours, read-out: % of controls) amounted to 54%. Further, the activity at 0.025 µg/mL in the series on HeLa cells (Homo sapiens, HeLa, 24 h, dose 25 ng/ml, 24 hours, read-out: % of controls) stood at 4%. Moreover, in the series on HeLa cells (setting [4]), the activity at 0.1 µg/mL came to 0%. Besides, in the series with HeLa cells, the “activity … in vitro (in words)” value is “maintained a high cytotoxic activity”.
For `COc1cccc2c1C(=O)c1c(O)c3c(c(O)c1C2=O)C[C@@](O)(C(C)=O)C[C@@H]3O[C@H]1C[C@H](N)[C@@](O)(CN)[C@H](C)O1` [V-C, 4'-C-aminomethyl-daunorubicin], the “T/C (median survival time of treated mice/median survival time of controls)” value in the series with P388 ascitic leukemia (50 mg/kg i.p.) is 181%; with P388 ascitic leukemia (100 mg/kg i.p.), 172%; in the series with P388 ascitic leukemia (200 mg/kg i.p.), 204%. The Toxicity deaths in the series with P388 ascitic leukemia (50 mg/kg i.p.) is 0/6; in the series with P388 ascitic leukemia (100 mg/kg i.p.) it was 0/5; with P388 ascitic leukemia (200 mg/kg i.p.) it was 0/4. Also, in the series with P388 ascitic leukemia (at a dose of 200 mg/kg), the “antitumor activity compared with daunorubicin (in words)” value was “more active than daunorubicin”. The IC50 with HeLa cells (setting [3]) was 1 µg/mL (≈ 1.8 µM). The activity at 0.1 µg/mL in the series on HeLa cells (setting [4]) was 143%. Moreover, the activity at 0.4 µg/mL in the series on HeLa cells (Homo sapiens, HeLa, 24 h, dose 400 ng/ml, 24 hours, read-out: % of controls) turned out to be 141%. Besides, the activity at 1.6 µg/mL in the series on HeLa cells (Homo sapiens, HeLa, 24 h, dose 1600 ng/ml, 24 hours, read-out: % of controls) is 3.8%. Also, the “activity … in vitro (in words)” value with HeLa cells is given as “markedly less active than daunorubicin”.
